Laboratory results from patent US9023398B2, “Method for improving the aqueous solubility of poorly-soluble substances” (Kabushiki Kaisha Sangi, priority 2009, dated 2015).
One block for each compound: values may come before it.

Key:
[1] = Procedure: The rotation number of the stirrer was 120 rpm, and all of the tests were conducted in a thermostat at 37±0.5° C. Two types of test solutions, namely, distilled water and 2nd fluid for disintegration test (pH 6.8) of the Japanese Pharmacopoeia were used. As such 2nd fluid for disintegration test of the Japanese Pharmacopoeia, a solution prepared by diluting the 10-fold concentration solution of Kanto Kagaku Co., Ltd. with distilled water was used.
A comparative test was carried out in the same manner as that described above with the exception that a poorly-soluble substance or the like was used in an amount equal to that of a substance with improved aqueous solubility, instead of the substance with improved aqueous solubility.
1 mL of the solution was sampled in an Eppendorf centrifuge tube, 1, 3, 10, 30, 60, 180 and 360 minutes after initiation of the test. The thus sampled solution was centrifuged at 12,000 rpm for 5 minutes. […] In the case of the comparative test, the poorly-soluble substance or the like, which had not been dissolved in the solution, was removed. An aliquot of this supernatant was immediately frozen. The frozen sample was freeze-dried, and it was then used as a sample in the measurement of the amount of the substance with improved aqueous solubility, which had been dissolved in the test solution. The dissolved poorly-soluble substance was measured mainly using a dual wavelength absorption photometer.
Moreover, a comparative test was carried out using silica fume instead of the calcium compound microparticles. Specifically, a coating treatment was carried out according to the same method as that described in the above section “6-1.

[2] = Dissolution test of poorly-soluble substances using 2nd fluid for disintegration test (pH 6.8) of the Japanese Pharmacopoeia; format: physicochemical; settings: 2nd fluid for disintegration test
Protocol: From initiation of the test, the mixed solution was stirred with a stirrer having a length of 15 mm. The rotation number of the stirrer was 120 rpm, and all of the tests were conducted in a thermostat at 37±0.5° C. Two types of test solutions, namely, distilled water and 2nd fluid for disintegration test (pH 6.8) of the Japanese Pharmacopoeia were used. As such 2nd fluid for disintegration test of the Japanese Pharmacopoeia, a solution prepared by diluting the 10-fold concentration solution of Kanto Kagaku Co., Ltd. with distilled water was used.

[3] = Dissolution test of poorly-soluble substances using distilled water; format: physicochemical; settings: water
[4] = Gliclazide, elution time 30 min
[5] = Gliclazide, elution time 120 min
[6] = Gliclazide, elution time 360 min
[7] = Metoclopramide, elution time 3 min
[8] = Metoclopramide, elution time 30 min
[9] = Metoclopramide, elution time 360 min
[10] = Spironolactone, elution time 3 min
[11] = Spironolactone, elution time 10 min
[12] = Spironolactone, elution time 30 min
[13] = Spironolactone, elution time 120 min
[14] = Spironolactone, elution time 360 min
[15] = Probenecid, elution time 10 min
[16] = Probenecid, elution time 30 min
[17] = Probenecid, elution time 120 min
[18] = Probenecid, elution time 360 min
[19] = Allopurinol, elution time 3 min
[20] = Allopurinol, elution time 10 min
[21] = Allopurinol, elution time 30 min
[22] = Allopurinol, elution time 120 min
[23] = Allopurinol, elution time 360 min
[24] = Prednisolone, elution time 10 min
[25] = Prednisolone, elution time 30 min
[26] = Prednisolone, elution time 120 min
[27] = Prednisolone, elution time 360 min
[28] = Estradiol Enanthate, elution time 3 min
[29] = Estradiol Enanthate, elution time 30 min
[30] = Estradiol Enanthate, elution time 120 min
[31] = Estradiol Enanthate, elution time 360 min
[32] = Haloperidol, elution time 3 min
[33] = Haloperidol, elution time 10 min
[34] = Haloperidol, elution time 360 min
[35] = Carvedilol, elution time 10 min
[36] = Carvedilol, elution time 30 min
[37] = Carvedilol, elution time 120 min
[38] = Carvedilol, elution time 360 min

SMILES: N[C@@H](CSCC(=O)O)C(=O)O [L-carbocysteine]
solubility-improving effect [1]: a solubility-improving effect was obtained

SMILES: Clc1ccc2c(c1)C(N1CCNCC1)=Nc1ccccc1O2 [amoxapine]
solubility-improving effect [1]: a solubility-improving effect was obtained

SMILES: OCCN(CCO)c1nc(N2CCCCC2)c2nc(N(CCO)CCO)nc(N3CCCCC3)c2n1 [compound 31, Dipyridamole]
Dissolved amount ([2]; Dipyridamole, elution time 3 min): 6.5 µg/mL
Dissolved amount ([2]; Dipyridamole, elution time 10 min): 6.5 µg/mL
Dissolved amount ([2]; Dipyridamole, elution time 30 min): 8.3 µg/mL
Dissolved amount ([2]; Dipyridamole, elution time 120 min): 8.5 µg/mL
Dissolved amount ([2]; Dipyridamole, elution time 360 min): 9.2 µg/mL
Dissolved amount ([3]; elution time 3 min): 7.8 µg/mL
Dissolved amount ([3]; elution time 10 min): 7.9 µg/mL
Dissolved amount ([3]; elution time 30 min): 8.0 µg/mL
Dissolved amount ([3]; elution time 120 min): 8.5 µg/mL
Dissolved amount ([3]; elution time 360 min): 8.2 µg/mL

SMILES: Cc1ccc(S(=O)(=O)NC(=O)NN2CC3CCCC3C2)cc1 (centres unmarked) [compound 32, Gliclazide]
Dissolved amount ([2]; Gliclazide, elution time 3 min): 80.1 µg/mL
Dissolved amount [2, 4]: 296.1 µg/mL
Dissolved amount [2, 5]: 420.2 µg/mL
Dissolved amount [2, 6]: 429.4 µg/mL
Dissolved amount ([3]; Gliclazide, elution time 3 min): 11.1 µg/mL
Dissolved amount ([3]; Gliclazide, elution time 10 min): 26.3 µg/mL
Dissolved amount [3, 4]: 35.4 µg/mL
Dissolved amount [3, 5]: 38.8 µg/mL
Dissolved amount [3, 6]: 39.3 µg/mL

SMILES: CC(=O)S[C@@H]1CC2=CC(=O)CC[C@]2(C)[C@H]2CC[C@@]3(C)[C@@H](CC[C@@]34CCC(=O)O4)[C@H]12 [compound 34, Spironolactone]
Dissolved amount [2, 10]: 71.0 µg/mL
Dissolved amount [2, 11]: 85.6 µg/mL
Dissolved amount [2, 12]: 89.3 µg/mL
Dissolved amount [2, 13]: 92.0 µg/mL
Dissolved amount [2, 14]: 93.7 µg/mL
Dissolved amount [3, 10]: 29.6 µg/mL
Dissolved amount [3, 11]: 31.9 µg/mL
Dissolved amount [3, 12]: 33.7 µg/mL
Dissolved amount [3, 13]: 39.7 µg/mL
Dissolved amount [3, 14]: 35.2 µg/mL

SMILES: CCCN(CCC)S(=O)(=O)c1ccc(C(=O)O)cc1 [compound 38, Probenecid]
Dissolved amount ([2]; Probenecid, elution time 3 min): 386.2 µg/mL
Dissolved amount [2, 15]: 1107.2 µg/mL
Dissolved amount [2, 16]: 1315.0 µg/mL
Dissolved amount [2, 17]: 2619.5 µg/mL
Dissolved amount [2, 18]: 3715.9 µg/mL
Dissolved amount ([3]; Probenecid, elution time 3 min): 10.7 µg/mL
Dissolved amount [3, 15]: 22.7 µg/mL
Dissolved amount [3, 16]: 33.4 µg/mL
Dissolved amount [3, 17]: 39.8 µg/mL
Dissolved amount [3, 18]: 37.5 µg/mL

SMILES: C[C@]12C=CC(=O)C=C1CC[C@@H]1[C@@H]2[C@@H](O)C[C@@]2(C)[C@H]1CC[C@]2(O)C(=O)CO [compound 41, Prednisolone]
Dissolved amount ([2]; Prednisolone, elution time 3 min): 369.1 µg/mL
Dissolved amount [2, 24]: 382.4 µg/mL
Dissolved amount [2, 25]: 310.8 µg/mL
Dissolved amount [2, 26]: 265.5 µg/mL
Dissolved amount [2, 27]: 257.9 µg/mL
Dissolved amount [3, 24]: 336.3 µg/mL
Dissolved amount [3, 25]: 315.8 µg/mL
Dissolved amount [3, 26]: 268.2 µg/mL
Dissolved amount [3, 27]: 266.3 µg/mL

SMILES: CCCCCCC(=O)O[C@H]1CC[C@H]2[C@@H]3CCc4cc(O)ccc4[C@H]3CC[C@]12C [compound 44, Estradiol Enanthate]
Dissolved amount [2, 28]: 7.9 µg/mL
Dissolved amount [2, 29]: 7.0 µg/mL
Dissolved amount [2, 30]: 19.0 µg/mL
Dissolved amount [2, 31]: 10.9 µg/mL
Dissolved amount [3, 28]: 1.6 µg/mL
Dissolved amount ([3]; Estradiol Enanthate, elution time 10 min): 1.4 µg/mL
Dissolved amount [3, 29]: 1.8 µg/mL
Dissolved amount [3, 30]: 1.6 µg/mL
Dissolved amount [3, 31]: 1.3 µg/mL

SMILES: O=C(CCCN1CCC(O)(c2ccc(Cl)cc2)CC1)c1ccc(F)cc1 [compound 46, Haloperidol]
Dissolved amount [2, 32]: 23.9 µg/mL
Dissolved amount [2, 33]: 35.6 µg/mL
Dissolved amount ([2]; Haloperidol, elution time 120 min): 50.1 µg/mL
Dissolved amount [2, 34]: 48.9 µg/mL
Dissolved amount [3, 32]: 8.2 µg/mL
Dissolved amount [3, 33]: 10.0 µg/mL
Dissolved amount ([3]; Haloperidol, elution time 30 min): 11.3 µg/mL
Dissolved amount [3, 34]: 13.1 µg/mL

SMILES: COc1ccccc1OCCNCC(O)COc1cccc2[nH]c3ccccc3c12 (centres unmarked) [compound 49, Carvedilol]
Dissolved amount ([2]; Carvedilol, elution time 3 min): 13.9 µg/mL
Dissolved amount [2, 35]: 26.3 µg/mL
Dissolved amount [2, 36]: 48.6 µg/mL
Dissolved amount [2, 37]: 44.1 µg/mL
Dissolved amount [2, 38]: 45.1 µg/mL
Dissolved amount ([3]; Carvedilol, elution time 3 min): 5.2 µg/mL
Dissolved amount [3, 35]: 8.3 µg/mL
Dissolved amount [3, 36]: 10.0 µg/mL
Dissolved amount [3, 37]: 15.0 µg/mL
Dissolved amount [3, 38]: 16.0 µg/mL

Now from value to compound:

Dissolved amount [2, 7]: 12420.8 µg/mL
Dissolved amount [2, 8]: 13285.5 µg/mL
Dissolved amount [2, 9]: 13564.1 µg/mL
Dissolved amount [3, 7]: 6159.5 µg/mL
Dissolved amount ([3]; Metoclopramide, elution time 10 min): 5382.3 µg/mL
Dissolved amount [3, 8]: 5437.6 µg/mL
Dissolved amount ([3]; Metoclopramide, elution time 120 min): 5478.0 µg/mL
Dissolved amount [3, 9]: 5654.9 µg/mL
SMILES: CCN(CC)CCNC(=O)c1cc(Cl)c(N)cc1OC [compound 33, Metoclopramide]

Dissolved amount [2, 19]: 565.4 µg/mL
Dissolved amount [2, 20]: 672.6 µg/mL
Dissolved amount [2, 21]: 725.7 µg/mL
Dissolved amount [2, 22]: 722.8 µg/mL
Dissolved amount [2, 23]: 696.1 µg/mL
Dissolved amount [3, 19]: 578.2 µg/mL
Dissolved amount [3, 20]: 679.4 µg/mL
Dissolved amount [3, 21]: 773.9 µg/mL
Dissolved amount [3, 22]: 741.5 µg/mL
Dissolved amount [3, 23]: 712.5 µg/mL
SMILES: Oc1ncnc2[nH]ncc12 [compound 39, Allopurinol]

Dissolved amount ([2]; Pindolol, elution time 3 min): 1394.9 µg/mL
Dissolved amount ([2]; Pindolol, elution time 10 min): 2837.9 µg/mL
Dissolved amount ([2]; Pindolol, elution time 30 min): 3212.1 µg/mL
Dissolved amount ([2]; Pindolol, elution time 120 min): 3624.7 µg/mL
Dissolved amount ([3]; Pindolol, elution time 3 min): 53.1 µg/mL
Dissolved amount ([3]; Pindolol, elution time 10 min): 71.1 µg/mL
Dissolved amount ([3]; Pindolol, elution time 30 min): 77.8 µg/mL
Dissolved amount ([3]; Pindolol, elution time 120 min): 93.5 µg/mL
Dissolved amount ([3]; Pindolol, elution time 360 min): 93.6 µg/mL
SMILES: CC(C)NCC(O)COc1cccc2[nH]ccc12 (centres unmarked) [compound 42, Pindolol]

Dissolved amount ([2]; Adenine, elution time 3 min): 1752.2 µg/mL
Dissolved amount ([2]; Adenine, elution time 10 min): 2028.0 µg/mL
Dissolved amount ([2]; Adenine, elution time 30 min): 2001.9 µg/mL
Dissolved amount ([2]; Adenine, elution time 120 min): 2001.4 µg/mL
Dissolved amount ([2]; Adenine, elution time 360 min): 1876.8 µg/mL
Dissolved amount ([3]; Adenine, elution time 3 min): 1478.0 µg/mL
Dissolved amount ([3]; Adenine, elution time 10 min): 1557.3 µg/mL
Dissolved amount ([3]; Adenine, elution time 30 min): 1646.6 µg/mL
Dissolved amount ([3]; Adenine, elution time 360 min): 1696.4 µg/mL
SMILES: Nc1ncnc2nc[nH]c12 [compound 45, Adenine]
